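These data come from cells grown in 96-well plates and exposed to compound for 48 hours at five concentrations. GI50 marks 50% less growth. TGI: total growth inhibition.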 Where a SMILES comes first, the peptide text is derived from it. [ ]: non-standard residue; d: D form. The star is where a group is joined. ξ: configuration not given here. ξD = NC(CC(=O)O)C(=O)O; Ac3c = NC1(C(=O)O)CC1; Boc = CC(C)(C)OC(=O)*; OBn = c1ccc(CO*)cc1
Key:
Experiment in all cases: NCI tumour cell line growth inhibition, 48 h
[1] = tested on: COLO 205 colon
[2] = tested on: HCT-15 colon
[3] = tested on: HT29 colon
[4] = tested on: IGROV1 ovarian
[5] = tested on: MDA-N
[6] = tested on: NCI-H460 lung
[7] = tested on: OVCAR-8 ovarian
[8] = tested on: PC-3 prostate
[9] = tested on: SK-MEL-2 melanoma
[10] = tested on: UO-31 renal

Row | SMILES | TGI [1] [µM] | TGI [2] [µM] | TGI [3] [µM] | TGI [4] [µM] | TGI [5] [µM] | TGI [6] [µM] | TGI [7] [µM] | TGI [8] [µM] | TGI [9] [µM] | TGI [10] [µM] | GI50 [1] [µM] | GI50 [2] [µM] | GI50 [3] [µM] | GI50 [5] [µM] | GI50 [6] [µM] | GI50 [7] [µM] | GI50 [8] [µM] | GI50 [9] [µM] | GI50 [10] [µM]
1 | N/N=C1/C(=N/O)CCc2nonc21 | > 100 | > 100 | > 100 | > 100 | > 100 | > 100 | > 100 | > 100 | > 100 | > 100 |  |  |  |  |  |  |  |  | 
2 | Cc1cc2ccccc2n1CC(=O)N1CCCC1 | > 100 | > 100 | > 100 | > 100 | > 100 | > 100 | > 100 | > 100 | > 100 | > 100 |  |  |  |  |  |  |  |  | 
3 | COc1ccc(/C=C2\CC3C4CC=C5C[C@@H](O)CC[C@]5(C)C4CC[C@]3(C)\C2=N\O)cc1OC (some centres undefined) | 67.1 | > 100 | > 100 | > 100 | > 100 | > 100 | > 100 | > 100 | 42.3 | 9.97 |  |  |  |  |  |  |  |  | 
4 | S=c1nc2[nH]c3ccc(Br)cc3c2n[nH]1 | > 100 | > 100 | > 100 | > 100 | 30.7 | > 100 | > 100 | > 100 | 90 | > 100 |  |  |  |  |  |  |  |  | 
5 | Cc1cn(CC2=NCCCN2)c(=O)[nH]c1=O | > 100 | > 100 | > 100 | > 100 | > 100 | > 100 | > 100 | > 100 | > 100 | > 100 |  |  |  |  |  |  |  |  | 
6 | O=C(Nc1nnc(-c2ccccc2)o1)C(SC(=S)N1CCOCC1)c1ccccc1 (centres undefined) | > 100 | > 100 | > 100 | > 100 | > 100 | 66.1 | > 100 | > 100 | > 100 | > 100 |  |  |  |  |  |  |  |  | 
7 | CC(NC(=O)OCc1ccccc1)NC(=O)C(CC(=O)OC(C)(C)C)NC(=O)OC(C)(C)C (centres undefined) | > 100 | > 100 | > 100 | > 100 | > 100 | > 100 | > 100 | > 100 | > 100 | > 100 |  |  |  |  |  |  |  |  | 
8 | CC1CC[C@@]2(OC1)O[C@H]1C[C@H]3[C@@H]4CC[C@H]5C[C@@H](OC6OC(CO)C(OC7OC(CO)C(OC8OC(CO)C(O)C(OC9OC(C)C(OC%10OC(C)C(O)C(O)C%10O)C(O)C9O)C8OC8OCC(O)C(O)C8O)C(O)C7O)C(O)C6O)CC[C@]5(C)[C@H]4CC(=O)[C@]3(C)[C@H]1[C@@H]2C (some centres undefined) | 30.1 | 35.2 | > 100 | 37.4 | 39.4 | 32.9 | 38.4 | 30.9 | 30 | 44.5 |  |  |  |  |  |  |  |  | 
9 | O=C(NNc1cn[nH]c(=O)c1Cl)/C(=C/c1ccc2c(c1)OCO2)NC(=O)c1ccccc1 | > 100 | > 100 | > 100 | > 100 | > 100 | > 100 | > 100 | > 100 | > 100 | > 100 |  |  |  |  |  |  |  |  | 
10 | C=CC(C)(C)N[C@@H](C(=O)N1CCC[C@H]1c1nc(-c2nc(C(=O)OCC=C(C)C)c(C)o2)c(C)o1)C(C)C | 52.1 | 51.5 | 46.1 | > 100 | 38.4 | 51.1 | 65 | > 100 | 73.5 | 38.3 |  |  |  |  |  |  |  |  | 
11 | CCCC(CC)c1c(O)c(O)c(C(CC)CCC)c(C(CC)CCC)c1C(CC)CCC (centres undefined) | > 10 | > 10 | > 10 | > 10 | > 10 | > 10 | > 10 | > 10 | > 10 | > 10 |  |  |  |  |  |  |  |  | 
12 | CC(C)(C)n1c(=O)n(C(=O)C(Cl)(Cl)Cl)n(C(=O)C(Cl)(Cl)Cl)c1=O | > 100 | > 100 | > 100 | > 100 | > 100 | > 100 | > 100 | > 100 | > 100 | > 100 |  |  |  |  |  |  |  |  | 
13 | COc1ccc(C(=C(I)c2ccccc2)c2ccc(OC)cc2)cc1 | > 100 | > 100 | > 100 | > 100 | > 100 | > 100 | > 100 | > 100 | > 100 | > 100 |  |  |  |  |  |  |  |  | 
14 | O=C1CCC2(CC1CCSc1ccccc1)OCCO2 (centres undefined) | > 100 | > 100 | > 100 | > 100 | > 100 | > 100 | > 100 | > 100 | > 100 | > 100 |  |  |  |  |  |  |  |  | 
15 | COc1cc(/C=C2\N=C(c3ccccc3)N(/N=C3\C(=O)Nc4ccccc43)C2=O)cc(OC)c1OC | > 100 | > 100 | > 100 | > 100 | > 100 | > 100 | > 100 | > 100 | > 100 | > 100 |  |  |  |  |  |  |  |  | 
16 | O=C(c1ccccc1)c1c(C(F)(F)F)n([O-])c2cc(Cl)c(Cl)cc2[n+]1=O | 18.8 | 2.76 | 0.966 | 0.984 | 4.17 | 4.53 | 20.9 | 4.03 | 7.7 | 4.21 |  |  |  |  |  |  |  |  | 
17 | COC(=O)c1ccccc1C#CCCCOS(C)(=O)=O | > 10 | > 10 | > 10 | > 10 | > 10 | > 10 | > 10 | > 10 | > 10 | > 10 |  |  |  |  |  |  |  |  | 
18 | C[C@H](CC[C@@H](O)C(C)(C)O)[C@H]1CC[C@@]2(C)[C@@H]3CC=C4[C@@H](CC[C@H](O)C4(C)C)[C@]3(C)C(=O)C[C@]12C | 31.8 | > 50 | > 50 | > 50 | > 50 | > 50 | > 50 | 45.4 | > 50 | > 50 |  |  |  |  |  |  |  |  | 

Row | SMILES | TGI [1] [µM] | TGI [2] [µM] | TGI [3] [µM] | TGI [4] [µM] | TGI [5] [µM] | TGI [6] [µM] | TGI [7] [µM] | TGI [8] [µM] | TGI [9] [µM] | TGI [10] [µM] | GI50 [1] [µM] | GI50 [2] [µM] | GI50 [3] [µM] | GI50 [5] [µM] | GI50 [6] [µM] | GI50 [7] [µM] | GI50 [8] [µM] | GI50 [9] [µM] | GI50 [10] [µM]
19 | O=C1C=C2CO[C@H]3OC[C@H](O)[C@@H]1[C@@H]23 | 30 | > 100 | > 100 | > 100 | > 100 | > 100 | > 100 | > 100 | 37.3 | > 100 |  |  |  |  |  |  |  |  | 
20 | O=c1c2ccccc2n2nnc3ccc(NCCCNCCNCCCNc4ccc5nnn6c7ccccc7c(=O)c4c56)c1c32 | > 50 | > 26.4 | 1.52 | 8.58 | > 50 | 15.8 | > 20.2 | 16.3 | > 50 | 19.5 |  |  |  |  |  |  |  |  | 
21 | S=C1C(=Nc2ccccc2)N(c2ccccc2)/C(=N\c2ccccn2)N1c1ccccc1 | 22.7 | 27.7 | 24.8 | 26.2 | 18.5 | 27 | 27.5 | 25.4 | 24.6 | 26.1 |  |  |  |  |  |  |  |  | 
22 | Cc1nccn1S(=O)(=O)c1ccc(Br)cc1Br | 33.4 | > 100 | > 100 | > 100 | 50.1 | > 100 | > 100 | > 100 | 55 | 68.7 |  |  |  |  |  |  |  |  | 
23 | NC(c1ccccc1)(C(F)(F)F)P1(=O)OC(=O)c2ccccc2O1 (centres undefined) | > 100 | > 100 | > 100 | > 100 | > 100 | > 100 | > 100 | > 100 | > 100 | > 100 |  |  |  |  |  |  |  |  | 
24 | Cc1cccc2nc3cccc(C(=O)NCCC[N+](C)(CCCNC(=O)c4cccc5nc6cccc(C)c6nc45)Cc4c([N+](=O)[O-])ncn4C)c3nc12 | > 1100 | > 1100 | 96.5 | > 1100 | > 1100 | 257 | > 1100 | > 1100 | > 1100 | > 1100 | 184 | 13.6 | 1.96 | 18.1 | 2.15 | 4.44 | 6.47 | 260 | 48.7
25 | C1#Cc2ccccc2OCCOc2ccccc2C#Cc2ccccc2OCCOc2ccccc21 | > 100 | > 100 | > 100 | 41.5 | > 100 | > 100 | 28.3 | > 100 | > 100 | > 100 |  |  |  |  |  |  |  |  | 
26 | COC(=O)C1(NC(=O)C(CC(=O)OCc2ccccc2)NC(=O)OC(C)(C)C)CC1 (centres undefined) (Boc-[ξD](OBn)-[Ac3c]-OMe) | > 100 | > 100 | > 100 | > 100 | > 100 | > 100 | > 100 | > 100 | > 100 | > 100 |  |  |  |  |  |  |  |  | 
27 | Cc1cc(Nc2ccc(N=Nc3ccc(O)c4ncccc34)cc2)nc(C)n1 | 40.4 | 36 | > 75.2 | 32 | 42.8 | 38 | 48.3 | > 69.9 | 34.4 | 36.5 |  |  |  |  |  |  |  |  | 
28 | CC(NC1=NCCO1)c1cccc([N+](=O)[O-])c1 (centres undefined) | > 100 | > 100 | > 100 | > 100 | > 100 | > 100 | > 100 | > 100 | > 100 | > 100 |  |  |  |  |  |  |  |  | 
29 | Nc1ccc(-c2nc3cc(F)ccc3s2)cc1I | > 100 | > 66.5 | > 100 | 22.3 | > 100 | 23.7 | 42.4 | > 100 | 50.6 | > 65.2 |  |  |  |  |  |  |  |  | 
30 | Cc1cc(=O)n2nc(CSc3nnc(N)s3)sc2n1 | > 100 | > 100 | > 100 | > 100 | > 100 | > 100 | > 100 | > 100 | > 100 | > 100 |  |  |  |  |  |  |  |  | 
31 | C=CCN(c1cc(OCc2ccccc2)c(NC(C)=O)cc1[N+](=O)[O-])S(C)(=O)=O | > 100 | > 100 | > 100 | 45.4 | > 100 | > 100 | 50.3 | > 100 | 73.1 | > 100 |  |  |  |  |  |  |  |  | 
32 | O=C(CN1CCCCC1)c1ccc2c(c1)Sc1ccccc1O2 | 61.1 | 24.6 | 23.7 | 23.5 | 34.5 | 29.5 | 33.2 | 24.4 | 32.8 | 22.9 |  |  |  |  |  |  |  |  | 
33 | Cc1ccc(S(=O)(=O)NC(=O)NCCC(=O)O)cc1 | > 100 | > 100 | > 100 | > 100 | > 100 | > 100 | > 100 | > 100 | > 100 | > 100 |  |  |  |  |  |  |  |  | 
34 | CCOC(=O)C1=C(C)C(C(=O)OC)/C(=C/c2cccc3cccnc23)C1=O (centres undefined) | > 10 | > 10 | > 10 | > 10 | > 10 | > 10 | > 10 | > 10 | > 10 | > 10 |  |  |  |  |  |  |  |  | 
35 | N#Cc1c(N2CCCC2)ncn(Cc2ccccc2)c1=S | > 100 | > 100 | > 100 | > 100 | > 100 | > 100 | > 100 | > 100 | > 100 | > 100 |  |  |  |  |  |  |  |  | 
